Source: patent US9821072B2, “Activated neurotensin molecules and the uses thereof” (priority 2014, dated 2017)
Bridge positions count the residues as written; N and C are the ends. Square brackets hold non-standard residues; d marks the D form. Peptide text beside a SMILES is read from it. * marks the point of attachment. Pen = CC(C)(S)[C@H](N)C(=O)O; Tle = CC(C)(C)[C@H](N)C(=O)O; Pip = O=C(O)[C@@H]1CCCCN1; Propionyl = CCC(=O)*; Sar = CNCC(=O)O

Assays:
[1] = system: FVB/N mice with KA-induced status epilepticus; assay: Kainic acid-induced status epilepticus model (body temperature, seizures, neurodegeneration, neuroinflammation, mossy fiber sprouting); type: in vivo, mouse; details: administered 30 min after SE onset
From the text: In the present case, excitotoxicity was induced by subcutaneous (s.c.) injection of kainic acid (KA), a pro-convulsant agent known to induce a status epilepticus (SE) with excitotoxicity, neuroinflammation, and severe neuronal damage in the hippocampus that can be observed 3 to 7 days after KA administration, and with aberrant axonal sprouting of the dentate gyrus mossy fibers that can be observed at 7-8 weeks after KA administration. We tested the effect of compound XIV on i) epileptic activity (persistence of recurrent seizures), ii) neurodegeneration, neuroinflammation and the resulting brain tissue damage and iii) aberrant axonal sprouting of the dentate gyrus mossy fibers.
FVB/N adult male mice were injected with a single dose of KA (40-45 mg/kg s.c.) to generate mice with spontaneous recurrent seizures as a hallmark of SE. A negative control group of mice were administered saline 0.9% instead of KA and no further treatment (“SHAM”, n=5). Thirty minutes after the onset of SE, mice received either an intravenous (tail vein) bolus injection of compound XIV at the dose of 4 mg/kg eq. NT (treatment group “SE+HT”, n=5) or saline 0.9% (group “SE”, n=5), or a high dose of diazepam (DZP) at 15 mg/kg), a potent anti-convulsive and anti-epileptic drug (positive control group “SE+DZP”). Body temperature was monitored before KA injection and then every 15 min during 6 hours thereafter, using a rectal probe. During this period, mice were assessed for the occurrence and severity of motor seizures. One week later, animals were sacrificed for histological assessment of neuronal cell death on coronal sections, the hippocampal formation being the main structure in the brain showing tissue damage in this model of excitotoxicity. Another group of animals with the same treatments was sacrificed 8 weeks for histological assessment of aberrant axonal sprouting of the dentate gyrus mossy fibers.
Administration of KA (40-45 mg/kg; s.c.) caused characteristic sequential behavioral changes. Immediately after being injected, all animals developed immobility (stage 1). Within 30 minutes after KA injection, automatisms with head nodding, forelimb clonus and circling behavior (stages 2-3) were observed. Then most animals progressed to intermittent (stage 4) followed by continuous (stage 5) rearing with forelimb clonus and falling behavior. […] Only animals attaining at least Racine stage 5 seizures were included in the study. The SE occurred around 2 hours after KA injection, was characterized by stage 5-6 seizures and often associated with hyperthermia (FIG. 13A). Compound XIV administered 30 min after SE onset (SE30) invariably led to transient hypothermia (FIG. 13A), which persisted at least 2 hrs. Mean decreases in body temperature (BT) of −2.5° C. and −3.6° C. were respectively recorded for SE30+ compound XIV animals as compared to SE animals (F=52.34; ***P<0.001). […] SE30+ compound XIV animals presented an average of stage 2 seizures or fewer during the rest of experiment. A subset of animals was administered i.p. a high dose of diazepam (DZP). […] Thus, administration of compound XIV at the dose of 4 mg/kg eq. […] This effect correlated with a −3 to −6° C. decrease in body temperature during ˜2.5 hours.
Using the anti-NeuN antibody and Fluoro-jade C that respectively label a neuronspecific nuclear protein and neuronal death, we observed a broad loss of CA1 and CA3 pyramidal cells as well as some dentate hilar neurons in the hippocampus of control SE animals (FIG. 14A, panel B), as compared to SHAM animals (FIG. 14A, panel A).
SE-induced gliosis involved microglia and astroglial cell types. We used GFAP and Iba1 immunolabeling to estimate the effect of compound XIV on neuroinflammation. In SHAM animals, a basal labeling for GFAP and Iba1 was detected in the HF (FIG. 14A, panel D). In SE animals, a very strong activation of glial cells occurred in all hippocampal layers (FIG. 14, panels E, H). […]

[2] = target: T1, human neurotensin receptor type 1 (hNTR-1) (Homo sapiens, UniProt P30989); assay: Competition binding assay with [3H]-neurotensin on human NTR-1 membranes (CHO cells); details: read-out: NTR-1 binding affinity Ki, Human NTR-1
T1 construct: purchased PerkinElmer; host or cells: CHO cells stably expressing human NTR-1 (membrane homogenates)

[3] = system: Sprague-Dawley rats; assay: Hypothermic response after i.v. bolus in Sprague-Dawley rats; type: in vivo, rat; details: 5 mg/kg eq. NT i.v. bolus
[4] = target: T2, rat neurotensin receptor type 1 (rNTR-1) (Rattus norvegicus, UniProt P20789); assay: Competition binding assay with [3H]-neurotensin on rat NTR-1 membranes (HEK293 cells); details: read-out: NTR-1 binding affinity Ki, Rat NTR-1
T2 construct: host or cells: HEK293 cells (membrane homogenates)
T2 sequence (P20789 whole entry): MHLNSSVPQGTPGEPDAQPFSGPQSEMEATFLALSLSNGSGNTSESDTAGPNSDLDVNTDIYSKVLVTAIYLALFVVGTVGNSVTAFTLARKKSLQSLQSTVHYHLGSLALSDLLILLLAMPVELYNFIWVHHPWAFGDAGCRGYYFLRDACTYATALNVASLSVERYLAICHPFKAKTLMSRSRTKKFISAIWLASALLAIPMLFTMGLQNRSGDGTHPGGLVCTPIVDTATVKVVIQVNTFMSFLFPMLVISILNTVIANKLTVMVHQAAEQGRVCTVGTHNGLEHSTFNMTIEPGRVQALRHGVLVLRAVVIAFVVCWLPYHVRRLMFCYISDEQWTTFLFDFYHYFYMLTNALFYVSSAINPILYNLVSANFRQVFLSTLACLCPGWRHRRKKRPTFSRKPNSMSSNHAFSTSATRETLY

T1 sequence (P30989 whole entry): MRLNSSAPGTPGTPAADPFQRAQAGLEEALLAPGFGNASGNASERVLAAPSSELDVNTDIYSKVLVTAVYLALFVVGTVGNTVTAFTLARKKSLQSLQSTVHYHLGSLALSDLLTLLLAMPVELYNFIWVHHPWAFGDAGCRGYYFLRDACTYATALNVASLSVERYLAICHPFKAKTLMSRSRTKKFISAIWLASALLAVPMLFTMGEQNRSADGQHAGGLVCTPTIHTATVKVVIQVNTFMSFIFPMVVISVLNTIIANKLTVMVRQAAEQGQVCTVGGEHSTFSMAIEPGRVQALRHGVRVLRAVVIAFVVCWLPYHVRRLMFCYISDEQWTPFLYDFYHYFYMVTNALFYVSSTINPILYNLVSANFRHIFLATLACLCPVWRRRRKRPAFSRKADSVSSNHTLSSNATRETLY

SMILES | Ki [2] [nM] | Maximal decrease in body temperature ([3]; 60 to 90 min post-injection) | Ki [4] [nM] | also measured
CN1C(=O)CN=C(c2ccccc2)c2cc(Cl)ccc21 [DZP, diazepam, reference compound] |  |  |  | effect on body temperature (BT) compared with SE animals [1]: hypothermia was also observed; glial inflammatory response in the hippocampus (GFAP, Iba1) compared with SE animals [1]: significantly decreased; seizure stage (Racine) during the rest of the experiment [1]: 1-2 stage; number of mossy fiber terminals innervating the IML (ZnT3) compared with SE animals ([1]; 8 weeks after SE): considerably reduced; neurodegeneration in the hippocampus (NeuN, Fluoro-jade C) compared with SE animals ([1]; one week later): significantly decreased
CCC(=O)N[C@@H]1CSSC(C)(C)[C@@H](C(=O)N[C@@H](CCCCN)C(=O)N[C@@H](CCCNC(=N)N)C(=O)N2CCC[C@H]2C(=O)N[C@@H](Cc2ccc(O)cc2)C(=O)N[C@H](C(=O)N[C@@H](CC(C)C)C(=O)O)C(C)(C)C)NC(=O)CN(C)C(=O)[C@H](CCCNC(=N)N)NC(=O)[C@H](CC(C)C)NC(=O)[C@H](CCCNC(=N)N)NC(=O)[C@@H]2CCCCN2C(=O)[C@H](CCSC)NC1=O [XX, Pr-cMPipRLRSarPen-KRPYTIeL-OH] (Propionyl-[dC]M[Pip]RLR[Sar][Pen]KRPY[Tle]L-OH; disulfide 1-8) | 0.11 ± 0.03 | around −2 °C | 0.08 ± 0.06 | 
CCC(=O)N[C@@H]1CSSC[C@@H](C(=O)N[C@@H](CCCNC(=N)N)C(=O)N[C@@H](CCCCN)C(=O)N2CCC[C@H]2C(=O)N[C@@H](Cc2ccc(O)cc2)C(=O)N[C@H](C(=O)N[C@@H](CC(C)C)C(=O)O)C(C)(C)C)NC(=O)CN(C)C(=O)[C@H](CCCNC(=N)N)NC(=O)[C@H](CC(C)C)NC(=O)[C@H](CCCNC(=N)N)NC(=O)[C@@H]2CCCCN2C(=O)[C@H](CCSC)NC1=O [XVII, Pr-cMPipRLRSarC-RKPYTIeL-OH] (Propionyl-[dC]M[Pip]RLR[Sar]CRKPY[Tle]L-OH; disulfide 1-8) | 0.47 ± 0.19 | around −2 °C | 0.19 ± 0.07 | 
CCC(=O)N[C@@H]1CSSC[C@@H](C(=O)N[C@@H](CCCNC(=N)N)C(=O)N[C@@H](CCCNC(=N)N)C(=O)N2CCC[C@H]2C(=O)N[C@@H](Cc2c[nH]c3ccccc23)C(=O)N[C@H](C(=O)N[C@@H](CC(C)C)C(=O)O)C(C)(C)C)NC(=O)CN(C)C(=O)[C@H](CCCNC(=N)N)NC(=O)[C@H](CC(C)C)NC(=O)[C@H](CCCNC(=N)N)NC(=O)[C@@H]2CCCCN2C(=O)[C@H](CCSC)NC1=O [XVIII, Pr-cMPipRLRSarC-RRPWTIeL-OH] (Propionyl-[dC]M[Pip]RLR[Sar]CRRPW[Tle]L-OH; disulfide 1-8) | 2.98 ± 1.08 |  | 0.02 ± 0.01 | Maximal decrease in body temperature ([3]; 90 min post-injection): around −2.8 °C
CCC(=O)N[C@@H]1CSSC[C@@H](C(=O)N[C@@H](CCCNC(=N)N)C(=O)N[C@@H](CCCNC(=N)N)C(=O)N2CCC[C@H]2C(=O)N[C@@H](Cc2ccc(O)cc2)C(=O)N[C@H](C(=O)N[C@@H](CC(C)C)C(=O)O)[C@@H](C)CC)NC(=O)CN(C)C(=O)[C@H](CCCNC(=N)N)NC(=O)[C@H](CC(C)C)NC(=O)[C@H](CCCNC(=N)N)NC(=O)[C@@H]2CCCCN2C(=O)[C@H](CCSC)NC1=O [Compound IX, Pr-cMPipRLRSarC-RRPYIL-OH] |  |  |  | Maximal decrease in body temperature ([3]; 30 min post-injection): −1.2 °C
CCC(=O)N[C@@H]1CSSC[C@@H](C(=O)N[C@@H](CCCCN)C(=O)N[C@@H](CCCNC(=N)N)C(=O)N2CCC[C@H]2C(=O)N[C@@H](Cc2c[nH]c3ccccc23)C(=O)N[C@H](C(=O)N[C@@H](CC(C)C)C(=O)O)C(C)(C)C)NC(=O)CN(C)C(=O)[C@H](CCCNC(=N)N)NC(=O)[C@H](CC(C)C)NC(=O)[C@H](CCCNC(=N)N)NC(=O)[C@@H]2CCCCN2C(=O)[C@H](CCSC)NC1=O [XIX, Pr-cMPipRLRSarC-KRPWTIeL-OH] (Propionyl-[dC]M[Pip]RLR[Sar]CKRPW[Tle]L-OH; disulfide 1-8) | 6.34 ± 2.25 |  | 0.03 ± 0.02 | Maximal decrease in body temperature ([3]; 90 min post-injection): around −2.8 °C
CCC(=O)N[C@@H]1CSSC[C@@H](C(=O)N[C@@H](CCCCN)C(=O)N[C@@H](CCCNC(=N)N)C(=O)N2CCC[C@H]2C(=O)N[C@@H](Cc2ccc(O)cc2)C(=O)N[C@H](C(=O)N[C@@H](CC(C)C)C(=O)O)C(C)(C)C)NC(=O)CN(C)C(=O)[C@H](CCCNC(=N)N)NC(=O)[C@H](CC(C)C)NC(=O)[C@H](CCCNC(=N)N)NC(=O)[C@@H]2CCCCN2C(=O)[C@H](CCSC)NC1=O [XVI, Pr-cMPipRLRSarC-KRPYTIeL-OH] (Propionyl-[dC]M[Pip]RLR[Sar]CKRPY[Tle]L-OH; disulfide 1-8) | 0.15 ± 0.06 | around −2 °C |  | 
CCC(=O)N[C@@H]1CSSC[C@@H](C(=O)N[C@@H](CCCNC(=N)N)C(=O)N[C@@H](CCCNC(=N)N)C(=O)N2CCC[C@H]2C(=O)N[C@@H](Cc2ccc(O)cc2)C(=O)N[C@H](C(=O)N[C@@H](CC(C)C)C(=O)O)C(C)(C)C)NC(=O)CN(C)C(=O)[C@H](CCCNC(=N)N)NC(=O)[C@H](CC(C)C)NC(=O)[C@H](CCCNC(=N)N)NC(=O)[C@@H]2CCCCN2C(=O)[C@H](CCSC)NC1=O [Compound XV, Pr-cMPipRLRSarC-RRPYTIeL-OH] (Propionyl-[dC]M[Pip]RLR[Sar]CRRPY[Tle]L-OH; disulfide 1-8) | 0.4 ± 0.2 | around −2 °C | 0.06 ± 0.02 | 
